Source: patent US11103467B2, “Method for treating depression” (DEVELCO PHARMA SCHWEIZ AG, priority 2014, dated 2021)

Details: both, human, serum, iv, 5 mg

What does the source list for `CNC1(c2ccccc2Cl)CCCCC1=O` (racemic) [(±)-ketamine, 2-(2-chlorophenyl)-2-(methylamino)cyclohexan-1-one]?
AUC(0-inf): 59.9 ± 13.2 ng·h/mL; Cmax: 33.7 ± 9.74 ng/mL; half-life: 6.99 ± 5.22 h
